Experiments:
[1] = biological target: T1, human FAAH (Fatty Acid Amide Hydrolase) (Homo sapiens, UniProt O00519); test: FAAH enzyme assay on CHO cell lysate expressing human FAAH (human LY), AAMCA fluorescent substrate; type: biochemical; settings: human FAAH_CHO cell lysate
T1 construct: The full length FAAH was subcloned into the mammalian expression vector, pcDEF.neo, using XbaI and EcoRI restriction sites; expressed in transfected cells
T1 sequence (O00519 1-579): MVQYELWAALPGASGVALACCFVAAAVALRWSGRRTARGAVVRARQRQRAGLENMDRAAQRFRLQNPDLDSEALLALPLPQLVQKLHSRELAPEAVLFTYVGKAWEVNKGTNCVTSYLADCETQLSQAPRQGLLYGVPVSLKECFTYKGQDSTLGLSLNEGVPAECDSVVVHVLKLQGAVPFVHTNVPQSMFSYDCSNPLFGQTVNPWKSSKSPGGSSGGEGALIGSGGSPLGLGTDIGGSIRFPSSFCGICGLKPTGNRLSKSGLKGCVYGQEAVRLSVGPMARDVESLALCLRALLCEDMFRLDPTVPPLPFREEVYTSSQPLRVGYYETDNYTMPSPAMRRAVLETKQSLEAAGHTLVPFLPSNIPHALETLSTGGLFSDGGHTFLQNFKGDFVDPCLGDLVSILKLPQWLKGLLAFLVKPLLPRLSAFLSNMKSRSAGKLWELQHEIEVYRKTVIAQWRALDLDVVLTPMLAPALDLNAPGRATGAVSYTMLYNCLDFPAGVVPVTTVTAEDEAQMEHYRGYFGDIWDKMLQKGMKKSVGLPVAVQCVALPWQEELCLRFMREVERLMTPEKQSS
Outline: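 CHO cell lysate expressing full-length human FAAH, preincubated with compound 15 min at 22-25° C. in pH 8.0 phosphate buffer with 200 mM KCl and 0.1% fatty-acid-free BSA. 1 μM AAMCA final, 1-3 h at room temperature; 7-amino-4-methylcoumarin release read by fluorescence (Ex 360, Em 460 nm).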

[2] = biological target: T1, human FAAH (Fatty Acid Amide Hydrolase); test: FAAH whole cell assay on CHO cells expressing human FAAH (human WC), AAMCA fluorescent substrate; type: cell-based; settings: human FAAH_CHO whole cell
Outline: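 CHO cells stably expressing full-length human FAAH, harvested with enzyme-free dissociation and resuspended at 4×10^4 cells/assay (96-well) or 1×10^4 (384-well) in 50 mM phosphate pH 8.0, 1 mM EDTA, 200 mM KCl, 0.2% glycerol, 0.1% BSA.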

Row | IC50 [1] | IC50 [2] | Compound
1 | 2.84 nM | 18.3 nM | COC(=O)c1ccc(-c2[nH]c3ncccc3c2Sc2ccc(Cl)cc2)cc1 [Example A26]
2 | 48.9 nM | 160 nM | CCn1cccc2c(Sc3ccc(Cl)cc3)c(-c3ccc4c(c3)OCO4)nc1-2 [Example E13]
3 | 65.6 nM | 364 nM | Cc1n[nH]c(C)c1-c1[nH]c2ncccc2c1Sc1ccc(Cl)cc1 [Example B19]
4 | 15.2 nM | 107 nM | O=C(NCc1ccc(O)c(O)c1)c1[nH]c2ncccc2c1Sc1ccc(Cl)cc1 [Example C11]
5 | 171 nM | 1340 nM | Cn1cccc2c(Sc3ccc(Cl)cc3)c(C(=O)Nc3ccc4c(c3)OCCO4)nc1-2 [Example E18]
6 | 168 nM | 1300 nM | OCCn1cccc2c(Sc3ccc(Cl)cn3)c(-c3ccc4c(c3)OCCO4)nc1-2 [Example E17]
7 | 107 nM | 1110 nM | Clc1ccc(Sc2c(C3=CCCC3)[nH]c3ncccc23)cc1 [Example B15]
8 | 9.92 nM | 18.8 nM | Cn1cccc2c(Sc3ccc(Cl)cc3)c([C@H]3CC[C@H](O)CC3)nc1-2 [Example E7]
9 | 818 nM | 8410 nM | COc1ccc(C(O)c2[nH]c3ncccc3c2Sc2ccc(Cl)cc2)cc1 (centres unmarked) [Example J10]
10 | 148 nM | 252 nM | Cn1cccc2c(Sc3ccc(Cl)cn3)c([C@H]3CC[C@@H](O)CC3)nc1-2 [Example E23]
11 | 134 nM | 405 nM | O=C1Cc2cc(-c3[nH]c4ncccc4c3Sc3ccc(Cl)cn3)ccc2N1 [Example A33]
12 | 260 nM | 1140 nM | Clc1ccc(Sc2c(CNC3CCOCC3)[nH]c3ncccc23)cc1 [Example J7]
13 | 31.9 nM | 190 nM | Clc1ccc(Sc2c(C3=CCCOC3)[nH]c3ncccc23)cc1 [Example B17]
14 | 7.43 nM | 28.5 nM | O=C(Nc1ccc2c(c1)OCCO2)c1[nH]c2ncccc2c1Sc1ccc(Cl)cc1 [Example C14]
15 | 2.15 nM | 10.7 nM | Clc1ccc(Sc2c(-c3ccc4[nH]ncc4c3)[nH]c3ncccc23)cc1 [Example I3, 5-{3-[(4-chlorophenyl)sulfanyl]-1H-pyrrolo[2,3-b]pyridin-2-yl}-1H-indazole]
16 | 6.51 nM | 16.6 nM | Cn1c(-c2ccc3c(c2)OCCO3)c(Sc2ccc(Cl)cc2)c2cccnc21 [Example E3, 3-[(4-chlorophenyl)sulfanyl]-2-(2,3-dihydro-1,4-benzodioxin-6-yl)-1-methyl-1H-pyrrolo[2,3-b]pyridine]
17 | 52.9 nM | 151 nM | COc1ccc(Cc2[nH]c3ncccc3c2Sc2ccc(Cl)cc2)cc1 [Example F2, 3-[(4-chlorophenyl)sulfanyl]-2-(4-methoxybenzyl)-1H-pyrrolo[2,3-b]pyridine]
18 | 11.6 nM | 27.1 nM | CC(O)c1ccc(-c2[nH]c3ncccc3c2Sc2ccc(Cl)cc2)cc1 (centres unmarked) [Example B12]
19 | 252 nM | 573 nM | O=C(O)C1CC=C(c2[nH]c3ncccc3c2Sc2ccc(Cl)cc2)CC1 (centres unmarked) [Example B47]
20 | 2.89 nM | 13 nM | Clc1ccc(Sc2c(-c3ccc4c(c3)OCCO4)[nH]c3ncccc23)nc1 [Example B13]
21 | 230 nM | 370 nM | O=S(=O)(c1ccc(-c2[nH]c3ncccc3c2Sc2ccc(Cl)cn2)cc1)N1CCOCC1 [Example A21]
22 | 23.8 nM | 66.3 nM | O=C(NCCO)C1CC=C(c2[nH]c3ncccc3c2Sc2ccc(Cl)cc2)CC1 (centres unmarked) [Example B49]
23 | 14.6 nM | 73.9 nM | OC[C@H]1CC[C@@H](c2[nH]c3ncccc3c2Sc2ccc(Cl)cc2)CC1 [Example B51]

Row | IC50 [1] | IC50 [2] | Compound
24 | 4.42 nM | 11.8 nM | Clc1ccc(Sc2c(-c3ccc4c(c3)OCCO4)[nH]c3ncccc23)cc1 [Example B6, 3-[(4-chlorophenyl)sulfanyl]-2-(2,3-dihydro-1,4-benzodioxin-6-yl)-1H-pyrrolo[2,3-b]pyridine]
25 | 2.23 nM | 18.8 nM | COc1cccc(-c2[nH]c3ncccc3c2Sc2ccc(Cl)cc2)c1 [Example B7]
26 | 1.79 nM | 9.53 nM | OC1CC=C(c2[nH]c3ncccc3c2Sc2ccc(Cl)cc2)CC1 (centres unmarked) [Example B36]
27 | 464 nM | 8540 nM | Clc1ccc(Sc2c(-c3cccs3)[nH]c3ncccc23)cc1 [Example B33]
28 | 5.9 nM | 9.92 nM | O=C(Nc1ccc2c(c1)OCO2)c1[nH]c2ncccc2c1Sc1ccc(Cl)cc1 [Example C15]
29 | 695 nM | 5890 nM | CC(C)C(O)c1[nH]c2ncccc2c1Sc1ccc(Cl)cc1 (centres unmarked) [Example J11]
30 | 113 nM | 686 nM | Clc1ccc(Sc2c(-c3cnn4c3CCC4)[nH]c3ncccc23)cc1 [Example B31]
31 | 2.58 nM | 13.7 nM | Clc1ccc(Sc2c(-c3ccc4c(c3)OCO4)[nH]c3ncccc23)nc1 [Example B5, 2-(1,3-benzodioxol-5-yl)-3-[(5-chloropyridin-2-yl)sulfanyl]-1H-pyrrolo[2,3-b]pyridine]
32 | 9.47 nM | 47.4 nM | COc1ncc(-c2[nH]c3ncccc3c2Sc2ccc(Cl)cc2)c(OC)n1 [Example B14]
33 | 3.18 nM | 30 nM | Clc1ccc(Sc2c(-c3ccnc4[nH]ccc34)[nH]c3ncccc23)cc1 [Example B27]
34 | 116 nM | 925 nM | Cn1cccc2c(Sc3ccc(Cl)cn3)c(-c3ccc(C(O)C(F)(F)F)cc3)nc1-2 (centres unmarked) [Example E14]
35 | 1.43 nM | 3.83 nM | COc1ccc(-c2[nH]c3ncccc3c2Sc2ccc(Cl)cc2)cc1OC [Example B9]
36 | 13.4 nM | 32.7 nM | O[C@H]1CC[C@H](c2[nH]c3ncccc3c2Sc2ccc(Cl)cn2)CC1 [Example D6, trans-4-{3-[(5-chloropyridin-2-yl)sulfanyl]-1H-pyrrolo[2,3-b]pyridin-2-yl}cyclohexanol]
37 | 16.9 nM | 132 nM | OCc1ccc(-c2[nH]c3ncccc3c2Sc2ccc(Cl)cc2)cc1 [Example A29]
38 | 9.7 nM | 23.4 nM | Cn1cccc2c(Sc3ccc(Cl)cc3)c(-c3ccc4c(c3)OCCO4)nc1-2 [Example E2, 3-[(4-chlorophenyl)sulfanyl]-2-(2,3-dihydro-1,4-benzodioxin-6-yl)-7-methyl-7H-pyrrolo[2,3-b]pyridine]
39 | 2600 nM | 3330 nM | OC(c1ccc2c(c1)OCO2)c1[nH]c2ncccc2c1Sc1ccc(Cl)cc1 (centres unmarked) [Example J9]
40 | 42.9 nM | 272 nM | COc1ccc(NC(=O)c2[nH]c3ncccc3c2Sc2ccc(Cl)cc2)cn1 [Example C8]
41 | 4.22 nM | 12.4 nM | Cn1cccc2c(Sc3ccc(Cl)cc3)c(-c3ccc4[nH]ncc4c3)nc1-2 [Example E4]
42 | 3.08 nM | 24 nM | CSc1ccc(-c2[nH]c3ncccc3c2Sc2ccc(Cl)cc2)cn1 [Example A16]
43 | 23.2 nM | 124 nM | COc1ccc(-c2[nH]c3ncccc3c2Sc2ccc(Cl)cc2)c(OC)n1 [Example B18]
44 | 251 nM | 773 nM | CC1(C)CCC(NC(=O)c2[nH]c3ncccc3c2Sc2ccc(Cl)cc2)CC1 [Example C9]
45 | 1.65 nM | 16.4 nM | Oc1ccc(-c2[nH]c3ncccc3c2Sc2ccc(Cl)cc2)cc1 [Example A23]
46 | 9.79 nM | 18.1 nM | O=C(Nc1ccc2[nH]ncc2c1)c1[nH]c2ncccc2c1Sc1ccc(Cl)cc1 [Example C16]

Source: patent US20130059850A1, “AZA-INDOLE DERIVATIVES USEFUL AS MODULATORS OF FAAH” (MERCK SHARP & DOHME CORP., priority 2010, published 2013)
